Results on 18 molecules are retold here after patent publication US20120184006A1, “Reductase Enzymes” (UTAH STATE UNIVERSITY, priority 2011, published 2012).

Bounds are passed on as bounds.

Data set [1] addresses T1, fatty acyl-CoA reductase (FACoAR) from M. aquaeolei VT8 (Marinobacter nauticus (Marinobacter aquaeolei), UniProt A1U3L3).
T1 sequence (A1U3L3 1-661): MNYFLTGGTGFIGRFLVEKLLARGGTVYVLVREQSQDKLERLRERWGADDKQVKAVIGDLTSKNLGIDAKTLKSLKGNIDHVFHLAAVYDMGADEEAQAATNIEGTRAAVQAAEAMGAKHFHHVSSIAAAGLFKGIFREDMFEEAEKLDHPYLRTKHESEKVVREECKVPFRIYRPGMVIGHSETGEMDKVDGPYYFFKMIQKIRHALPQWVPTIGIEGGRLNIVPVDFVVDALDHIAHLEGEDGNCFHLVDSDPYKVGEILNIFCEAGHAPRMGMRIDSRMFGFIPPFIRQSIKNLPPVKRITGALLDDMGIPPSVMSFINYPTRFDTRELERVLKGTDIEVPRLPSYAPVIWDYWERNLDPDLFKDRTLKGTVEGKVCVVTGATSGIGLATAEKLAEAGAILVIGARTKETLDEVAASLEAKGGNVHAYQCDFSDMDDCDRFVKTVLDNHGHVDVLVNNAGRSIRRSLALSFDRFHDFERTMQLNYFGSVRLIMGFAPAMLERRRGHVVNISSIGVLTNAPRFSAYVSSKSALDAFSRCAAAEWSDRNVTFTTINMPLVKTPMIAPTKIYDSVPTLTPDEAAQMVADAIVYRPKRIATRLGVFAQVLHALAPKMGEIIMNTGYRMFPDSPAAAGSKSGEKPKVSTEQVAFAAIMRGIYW
Kind of data set: Continuous spectrophotometric DTNB assay (release of free CoA). Type of data set: biochemical. The conditions noted are these: for Rate of Reaction (nmol NTB^2− min^−1 mg protein^−1): 6 μM of the respective CoA as substrate; for % Specific Activity of Palmitoyl-CoA: percent of the specific activity of palmitoyl-CoA, 6 μM substrate. On the procedure:
Buffers and solutions were prepared as described above for NADPH assays. Each assay was conducted by adding 75 μL of the 2 mg/mL NADPH stock solution in buffer, 58 μg of protein, and 10 μL of a 10 mg/mL solution of DTNB in DMSO, varying concentrations of acyl-CoA and buffer to bring the volume to 1 mL. Reduction of acyl-CoA substrate was monitored by following the increase of the 2-nitro-5-thiobenzoate (NTB^2−) dianion concentration at 412 nm. […] These initial rates were used to calculate the apparent K, and Vmax values using the Igor Pro (Wavemetrics, Lake Oswego, Oreg.) software package fitting the initial rates to the Hill equation (Equation 1) where v is the initial velocity, Vmax is the maximum calculated velocity, [S]^n is the concentration of substrate and n is the Hill coefficient, K0.5^n is the approximation of Km or the approximate substrate concentration at which half of Vmax is obtained at a specific value of the Hill coefficient n. In the case of enzyme inhibition, a modified version of the Hill equation allowing for cooperative inhibition (Equation 2) where all of the coefficients are defined as for the Hill equation and the additional [i]^n is the concentration of inhibitor and n is the Hill coefficient. The Ki^n is the approximate concentration of inhibitor it takes to double the K0.5 at a specific value of the Hill coefficient n.

Data set [2] has as its system M. aquaeolei VT8 FACoAR. In words: Addition of detergents and reducing agents to the FACoAR kinetic assay. Type of data set: biochemical, Marinobacter aquaeolei VT8. The conditions noted are these: varying concentrations (isopropanol 5%). From the text:
As part of our characterization, we attempted to alleviate the sigmoidal response of activity to substrate concentration by the addition of reducing agents and detergents. In the case of another type of acyl-CoA reductase, HMG-CoA reductase, the addition of reducing agents and/or detergents could limit, but not eliminate the sigmoidal kinetics related to cooperative binding. […] This seems to indicate the potential of some inter- or intra-protein interaction that is necessary for the activity to occur. To further investigate this possibility, the protein was analyzed by size exclusion chromatography to determine the native weight of the protein.

For data set [3], the target named is T1, fatty acyl-CoA reductase (FACoAR) from M. aquaeolei VT8. In words: Continuous spectrophotometric NADPH assay (decrease of NADPH at 340 nm). The format is biochemical. The settings on record: for Rate of Reaction (nmol NADP^+ min^−1 mg proten^−1): 60 μm of the respective aldehyde as substrate; for % Specific Activity of Decanal: percent of the specific activity of decanal, 60 μm aldehyde. Here is the method: (§1) All assays were conducted in a total volume of 1 mL. A buffer containing 50 mM NaCl, 20 mM Tris-HCl pH 7.0, and 0.5 mg/mL BSA was prepared along with a 1 mM stock of aldehyde dissolved in dimethyl sulfoxide (DMSO) or a 0.1 mM stock of the acyl-CoA, and […] NADPH. All components including protein were degassed in sealed vials and placed under an argon atmosphere. NADPH was degassed as the solid prior to the addition of degassed buffer. Each assay was conducted by adding 75 μL of the NADPH stock, 58 μg protein for acyl-CoA assays or 15 μg protein for aldehyde assays, varying concentrations of aldehyde or acyl-CoA and buffer to bring the final volume to 1 mL. Each sample was continuously monitored for the decrease of NADPH at 340 nm on a Varian 50 Bio UV-visible spectrophotometer (Walnut Creek, Calif.). Initial rates were calculated in Excel using the linear initial rates of reaction obtained from the spectrophotometric assays by obtaining the slope from the best. In line and calculating nmol of NADPH oxidized per second. (Microsoft, Redmond, Wash.). These initial rates were used to calculate Km and Vmax values using the Igor Pro software package (Wavemetrics, Lake Oswego, Oreg.) fitting the initial rates to the Hill equation (31). NADPH specific activity assays were conducted identically as described above using a fixed 60 μM concentration of the various aldehyde substrates or 6 μM of the various acyl-CoA substrates.

For data set [4], the system named is FALDR (fatty aldehyde reductase) from M. aquaeolei VT8. The conditions noted are these: previously tested enzyme, aldehyde substrate; cited from earlier work.
Substrate in data set [5]: CCCCCCCCCCCCCCCC(=O)SCCNC(=O)CCNC(=O)[C@H](O)C(C)(C)COP(=O)(O)OP(=O)(O)OC[C@H]1O[C@@H](n2cnc3c(N)ncnc32)[C@H](O)[C@@H]1OP(=O)(O)O
In words: Continuous spectrophotometric NADPH assay (decrease of NADPH at 340 nm). The format is biochemical, Marinobacter aquaeolei VT8. The conditions noted are these: other: FIG. 5, NADPH assay, acyl-CoA substrate; pH 7.0. On the procedure: as §1

Substrate in data set [6]: CCCC/C=C\CCCCCCCCCC=O
The data set is described as above. Type of data set: biochemical, Marinobacter aquaeolei VT8. The conditions noted are these: pH 7.0. Here is the method: as §1

Substrate in data set [7]: CCCCCCCCCCCCCCCC(=O)SCCNC(=O)CCNC(=O)[C@H](O)C(C)(C)COP(=O)(O)OP(=O)(O)OC[C@H]1O[C@@H](n2cnc3c(N)ncnc32)[C@H](O)[C@@H]1OP(=O)(O)O
Kind of data set: Continuous spectrophotometric DTNB assay (release of free CoA). Type of data set: biochemical, Marinobacter aquaeolei VT8.

The mark [8] stands for this setting: running text b50, fatty aldehyde reduction.
[9] abbreviates: other: FIG. 6, NADPH assay, aldehyde substrate.

Regarding `CCCCCCCCCCCCCC(=O)SCCNC(=O)CCNC(=O)[C@H](O)C(C)(C)COP(=O)(O)OP(=O)(O)OC[C@H]1O[C@@H](n2cnc3c(N)ncnc32)[C@H](O)[C@@H]1OP(=O)(O)O` [Myristoyl-CoA], in data set [1], the “Rate of Reaction (nmol NTB^2− min^−1 mg protein^−1)” value is on record as 34.1 ± 2.1 nmol NTB^2− min^−1 mg protein^−1 and the “% Specific Activity of Palmitoyl-CoA” value is 58%.
For `CCCCCCCCCCCCCCCCCC(=O)SCCNC(=O)CCNC(=O)[C@H](O)C(C)(C)COP(=O)(O)OP(=O)(O)OC[C@H]1O[C@@H](n2cnc3c(N)ncnc32)[C@H](O)[C@@H]1OP(=O)(O)O` [Stearoyl-CoA], in that order: 37.6 ± 3.5 nmol NTB^2− min^−1 mg protein^−1 and 69%.
For `CCCCCCCCCCCC(=O)SCCNC(=O)CCNC(=O)[C@H](O)C(C)(C)COP(=O)(O)OP(=O)(O)OC[C@H]1O[C@@H](n2cnc3c(N)ncnc32)[C@H](O)[C@@H]1OP(=O)(O)O` [Lauroyl-CoA], in that order: 44.0 ± 6.3 nmol NTB^2− min^−1 mg protein^−1 and 80%.
With `OCCS` [β-mercaptoethanol], the “effect on FACoAR activity” value in data set [2] was “inhibited activity”.
As to `CCCCCC=O` [Hexanal], in data set [3], the “Rate of Reaction (nmol NADP^+ min^−1 mg proten^−1)” value is given as 1540 ± 30.0 nmol NADP^+ min^−1 mg proten^−1 and the “% Specific Activity of Decanal” value was found to be 10%.
The matching figures for `O=Cc1ccc2ccccc2c1` [2-Naphthaldehyde]: 5280 ± 10 nmol NADP^+ min^−1 mg proten^−1 and 3%.
For `CCCCCCCCCCCC=O` [Dodecanal], in that order: 11700 ± 250 nmol NADP^+ min^−1 mg proten^−1 and 74%.
With `CC(C)O` [isopropanol], the “effect on FACoAR activity” value in data set [2] is given as “inhibited activity”.
Take `CCCCCCCC(=O)SCCNC(=O)CCNC(=O)[C@H](O)C(C)(C)COP(=O)(O)OP(=O)(O)OC[C@H]1O[C@@H](n2cnc3c(N)ncnc32)[C@H](O)[C@@H]1OP(=O)(O)O` [Octanoyl-CoA]: in data set [1], the “Rate of Reaction (nmol NTB^2− min^−1 mg protein^−1)” value is on record as 18.8 ± 0.83 nmol NTB^2− min^−1 mg protein^−1 and the “% Specific Activity of Palmitoyl-CoA” value turned out to be 34%.
In the case of `CCCCCCCC/C=C\CCCCCCCC(=O)SCCNC(=O)CCNC(=O)[C@H](O)C(C)(C)COP(=O)(O)OP(=O)(O)OC[C@H]1O[C@@H](n2cnc3c(N)ncnc32)[C@H](O)[C@@H]1OP(=O)(O)O` [Oleyl-CoA], in data set [1], the “Rate of Reaction (nmol NTB^2− min^−1 mg protein^−1)” value is recorded as 41.5 ± 3.1 nmol NTB^2− min^−1 mg protein^−1 and the “% Specific Activity of Palmitoyl-CoA” value amounted to 76%.
For `CCC=O` [Propanal], in data set [3], the “Rate of Reaction (nmol NADP^+ min^−1 mg proten^−1)” value is on record as 43 ± 6.0 nmol NADP^+ min^−1 mg proten^−1 and the “% Specific Activity of Decanal” value was below 1%.
As for `CCCCCCCC=O` [Octanal], in data set [3], the “Rate of Reaction (nmol NADP^+ min^−1 mg proten^−1)” value was 5200 ± 1500 nmol NADP^+ min^−1 mg proten^−1 and the “% Specific Activity of Decanal” value came to 33%.
For `CC=O` [Acetaldehyde], in that order: 54 ± 6.0 nmol NADP^+ min^−1 mg proten^−1 and below 1%.
On to `CCCC/C=C\CCCCCCCCCC=O` [Cis-11-hexadecenal], for which, in data set [3], the “Rate of Reaction (nmol NADP^+ min^−1 mg proten^−1)” value is reported as 9910 ± 600 nmol NADP^+ min^−1 mg proten^−1 and the “% Specific Activity of Decanal” value came out at 63%. For the same molecule, the “n (Hill coefficient)” value in data set [3] (FIG. 6, NADPH assay, aldehyde substrate) worked out at 2±0.8. In addition, the Michaelis constant (Km) in data set [3] (fatty aldehyde reduction, read-out: Km (Hill equation)) came out at 25 µM. In data set [3] (setting [8]), the Vmax was around 10 µmol/min/mg and the cooperativity n is reported as around 2. In data set [4], the Michaelis-Menten constant (Km) was 177 µM and the Vmax result is recorded as “approximately 60 nmols min^−1 mg^−1”.
Turning to Triton X-100, the “effect on FACoAR activity” value in data set [2] is “inhibited activity”.
For the molecule `CCCCC/C=C\C/C=C\C/C=C\C/C=C\CCCC(=O)SCCNC(=O)CCNC(=O)[C@H](O)C(C)(C)COP(=O)(O)OP(=O)(O)OC[C@H]1O[C@@H](n2cnc3c(N)ncnc32)[C@H](O)[C@@H]1OP(=O)(O)O` [Arachidonoyl-CoA], in data set [1], the “Rate of Reaction (nmol NTB^2− min^−1 mg protein^−1)” value is given as 50.7 ± 3.66 nmol NTB^2− min^−1 mg protein^−1 and the “% Specific Activity of Palmitoyl-CoA” value is 93%.
On to `CCCCCCCCCC=O` [Decanal], for which, in data set [3], the “Rate of Reaction (nmol NADP^+ min^−1 mg proten^−1)” value is listed as 15800 ± 860 nmol NADP^+ min^−1 mg proten^−1 and the “% Specific Activity of Decanal” value was found to be 100%.

B1: fatty acyl-CoA reductase (FACoAR) from M. aquaeolei VT8 (Marinobacter nauticus VT8) (protein)
chain: MNYFLTGGTGFIGRFLVEKLLARGGTVYVLVREQSQDKLERLRERWGADDKQVKAVIGDLTSKNLGIDAKTLKSLKGNIDHVFHLAAVYDMGADEEAQAATNIEGTRAAVQAAEAMGAKHFHHVSSIAAAGLFKGIFREDMFEEAEKLDHPYLRTKHESEKVVREECKVPFRIYRPGMVIGHSETGEMDKVDGPYYFFKMIQKIRHALPQWVPTIGIEGGRLNIVPVDFVVDALDHIAHLEGEDGNCFHLVDSDPYKVGEILNIFCEAGHAPRMGMRIDSRMFGFIPPFIRQSIKNLPPVKRITGALLDDMGIPPSVMSFINYPTRFDTRELERVLKGTDIEVPRLPSYAPVIWDYWERNLDPDLFKDRTLKGTVEGKVCVVTGATSGIGLATAEKLAEAGAILVIGARTKETLDEVAASLEAKGGNVHAYQCDFSDMDDCDRFVKTVLDNHGHVDVLVNNAGRSIRRSLALSFDRFHDFERTMQLNYFGSVRLIMGFAPAMLERRRGHVVNISSIGVLTNAPRFSAYVSSKSALDAFSRCAAAEWSDRNVTFTTINMPLVKTPMIAPTKIYDSVPTLTPDEAAQMVADAIVYRPKRIATRLGVFAQVLHALAPKMGEIIMNTGYRMFPDSPAAAGSKSGEKPKVSTEQVAFAAIMRGIYW
With B1, the Km in data set [5] was determined as 4.0 ± 0.2 µM; in data set [6] (setting [9]), 48 ± 7 µM; in data set [7] (other: FIG. 5, DTNB assay, Hill fit, substrate), 4 ± 0.3 µM. Besides, the K0.5 turned out to be 25 µM in data set [6] (fatty aldehyde reduction); 4 µM in data set [7] (acyl-CoA reduction, data of both DTNB and NADPH assays). Besides, in data set [6] (setting [9]), the maximal velocity (Vmax) is 7.7±0.6 μmol min^−1 mg of protein^−1.
